From PMC3827197, “Antidiabetic Effects of Chamomile Flowers Extract in Obese Mice through Transcriptional Stimulation of Nutrient Sensors of the Peroxisome Proliferator-Activated Receptor (PPAR) Family” (PLoS ONE, 2013)

How the values were obtained:
[1] = system: HFD-fed C57BL/6 mice; assay: Therapy study in insulin-resistant obese HFD-fed (DIO) mice; settings: CFE 200 mg/kg/d or RGZ 4 mg/kg/d
[2] = system: PPARα target genes in HepG2 cells; assay: qPCR gene expression in HepG2 hepatocytes, with PPARα siRNA knockdown; settings: 300 µg/ml CFE or 10 µM GW7647, 24 h, vs vehicle
Description: Specificity of PPARα-driven modulation was investigated in siRNA-mediated knockdown in human hepatocytes and subsequent real-time PCR detection. Therefore, HepG2 cells were seeded in 24-well-plates (Nunc) at a density of 40,000 cells per well.

[3] = molecular target: T1, PPARα (Homo sapiens, UniProt Q07869); assay: Reporter gene assay of transcriptional activation, PPARα (HEK 293, GAL4-PPAR-LBD); format: cell-based; settings: relative to reference compound GW7647
T1 construct: HEK 293 cells were stably expressing a GAL4-PPAR-LBD fusion protein and an UAS-beta-lactamase reporter gene; host or cells: HEK 293
T1 sequence (Q07869 239-466 limits assumed): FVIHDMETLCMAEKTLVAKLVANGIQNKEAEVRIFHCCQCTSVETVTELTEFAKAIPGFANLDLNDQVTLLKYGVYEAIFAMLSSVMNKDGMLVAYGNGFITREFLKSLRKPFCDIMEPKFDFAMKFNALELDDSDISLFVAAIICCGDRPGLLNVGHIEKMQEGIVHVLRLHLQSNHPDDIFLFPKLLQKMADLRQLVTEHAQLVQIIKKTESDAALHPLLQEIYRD
Description: Transcriptional activation of PPARs was assessed in cellular reporter gene assays according to the manufacturer’s protocols (GeneBLAzer PPAR alpha/gamma/delta Assay, Life Technologies). Briefly, HEK 293 cells were stably expressing a GAL4-PPAR-LBD fusion protein and an UAS-beta-lactamase reporter gene. Cells were incubated with different concentrations of compounds resulting in differential expression of the reporter gene. Binding and activation assays were measured with the POLARstar Omega (BMG LABTECH, Offenburg, Germany). Data were fitted using GraphPad Prism 5.0 according equation: Y=Bottom + (Top-Bottom)/(1+10^((LogEC50-X)*HillSlope)) with variable Hill slope.

| Efficacy PPARα [3] [%] | Compound | Gene expression of inflammatory markers in WAT ([1]; 6 weeks, qPCR) | HOMA-IR insulin resistance, decrease ([1]; after 2 weeks) [%] | Expression of PPARα target genes (ACOX2, CPT 2, ECH1, HMGCS2) [2] |
| --- | --- | --- | --- | --- |
|  | CN(CCOc1ccc(CC2SC(=O)NC2=O)cc1)c1ccccn1 (stereo not shown) [RGZ, rosiglitazone] | remained largely unchanged | 67 |  |
| 100 | CC(C)(Sc1ccc(CCN(CCCCC2CCCCC2)C(=O)NC2CCCCC2)cc1)C(=O)O [GW7647] |  |  | significantly induced expression |
